Assay type in all cases: cell-based
Experiment [1] deals with T1, Sodium channel protein type 9 subunit alpha (Homo sapiens, UniProt Q15858). Kind of experiment: Displacement of [3H]-labelled radioligand from human Nav1.7 expressed in HEK293 cells measured after 24 hrs by liquid scintillation counting method. For orientation: Displacement assays read how much labelled ligand stays bound in the presence of the test substance.
Experiment [2] deals with T1, Sodium channel protein type 9 subunit alpha. Briefly: Inhibition of Nav1.7 (unknown origin) expressed in HEK293 cells at -60 mV holding potential measured after 600 secs by patch clamp method. (In general: Patch clamp records ionic current or voltage across a cell membrane.)
For experiment [3], the target named is Sodium channel protein type 5 subunit alpha (Homo sapiens, UniProt Q14524). Briefly: Inhibition of Nav1.5 (unknown origin) expressed in HEK293 cells at -40 mV holding potential measured after 600 secs by patch clamp method.
Sequence of Sodium channel protein type 5 subunit alpha (Q14524 whole entry): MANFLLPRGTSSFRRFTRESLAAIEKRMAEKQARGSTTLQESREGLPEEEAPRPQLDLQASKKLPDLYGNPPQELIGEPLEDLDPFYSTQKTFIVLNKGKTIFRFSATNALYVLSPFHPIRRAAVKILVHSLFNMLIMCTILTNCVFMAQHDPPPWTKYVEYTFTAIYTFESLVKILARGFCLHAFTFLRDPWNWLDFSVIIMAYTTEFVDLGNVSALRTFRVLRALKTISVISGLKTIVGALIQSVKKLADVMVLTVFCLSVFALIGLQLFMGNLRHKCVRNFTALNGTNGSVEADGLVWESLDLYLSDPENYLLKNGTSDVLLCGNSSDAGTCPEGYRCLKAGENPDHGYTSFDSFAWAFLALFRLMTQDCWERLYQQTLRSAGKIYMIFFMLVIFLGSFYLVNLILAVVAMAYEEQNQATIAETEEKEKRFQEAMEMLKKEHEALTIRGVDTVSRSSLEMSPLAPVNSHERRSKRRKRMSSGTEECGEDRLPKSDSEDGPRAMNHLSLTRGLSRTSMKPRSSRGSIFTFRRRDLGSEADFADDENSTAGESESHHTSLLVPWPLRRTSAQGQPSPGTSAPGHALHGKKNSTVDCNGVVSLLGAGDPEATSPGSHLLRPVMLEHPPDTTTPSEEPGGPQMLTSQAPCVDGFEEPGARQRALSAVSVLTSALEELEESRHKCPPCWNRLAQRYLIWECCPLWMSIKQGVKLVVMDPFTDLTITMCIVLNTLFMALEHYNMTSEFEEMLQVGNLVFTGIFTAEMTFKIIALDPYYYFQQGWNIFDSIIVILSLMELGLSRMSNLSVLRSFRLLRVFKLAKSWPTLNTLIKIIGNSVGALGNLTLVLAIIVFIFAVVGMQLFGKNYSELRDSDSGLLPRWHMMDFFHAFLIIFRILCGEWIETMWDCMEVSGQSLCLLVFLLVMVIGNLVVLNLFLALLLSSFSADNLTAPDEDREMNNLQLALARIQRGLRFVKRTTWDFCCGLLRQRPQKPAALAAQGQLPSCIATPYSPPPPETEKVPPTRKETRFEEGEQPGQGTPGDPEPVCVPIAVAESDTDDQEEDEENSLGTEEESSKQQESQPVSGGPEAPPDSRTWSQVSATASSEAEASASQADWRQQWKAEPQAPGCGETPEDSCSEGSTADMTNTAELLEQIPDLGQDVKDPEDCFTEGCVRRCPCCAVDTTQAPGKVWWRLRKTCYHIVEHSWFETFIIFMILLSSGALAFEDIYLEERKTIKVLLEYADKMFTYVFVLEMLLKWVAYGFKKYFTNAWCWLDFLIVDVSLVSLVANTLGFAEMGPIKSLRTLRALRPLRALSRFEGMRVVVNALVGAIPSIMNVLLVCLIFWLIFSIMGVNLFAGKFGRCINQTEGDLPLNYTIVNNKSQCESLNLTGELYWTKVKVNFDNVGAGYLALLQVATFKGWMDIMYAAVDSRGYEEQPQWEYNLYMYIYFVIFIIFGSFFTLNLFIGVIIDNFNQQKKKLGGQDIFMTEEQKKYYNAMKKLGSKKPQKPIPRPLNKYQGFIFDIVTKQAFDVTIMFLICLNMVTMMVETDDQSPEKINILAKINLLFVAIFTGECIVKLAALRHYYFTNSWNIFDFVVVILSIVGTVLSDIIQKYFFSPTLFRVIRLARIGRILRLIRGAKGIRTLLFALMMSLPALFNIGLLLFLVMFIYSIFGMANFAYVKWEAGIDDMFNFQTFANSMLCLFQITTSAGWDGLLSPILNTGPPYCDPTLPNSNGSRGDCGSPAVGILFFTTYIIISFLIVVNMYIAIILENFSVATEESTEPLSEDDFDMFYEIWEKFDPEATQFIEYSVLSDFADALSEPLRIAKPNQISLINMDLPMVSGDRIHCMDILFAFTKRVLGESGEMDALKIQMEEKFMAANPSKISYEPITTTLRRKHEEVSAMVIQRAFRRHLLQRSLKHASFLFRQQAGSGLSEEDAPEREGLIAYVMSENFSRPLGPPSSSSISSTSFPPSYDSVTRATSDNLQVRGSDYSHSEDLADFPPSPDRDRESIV

T1 sequence (Q15858 whole entry): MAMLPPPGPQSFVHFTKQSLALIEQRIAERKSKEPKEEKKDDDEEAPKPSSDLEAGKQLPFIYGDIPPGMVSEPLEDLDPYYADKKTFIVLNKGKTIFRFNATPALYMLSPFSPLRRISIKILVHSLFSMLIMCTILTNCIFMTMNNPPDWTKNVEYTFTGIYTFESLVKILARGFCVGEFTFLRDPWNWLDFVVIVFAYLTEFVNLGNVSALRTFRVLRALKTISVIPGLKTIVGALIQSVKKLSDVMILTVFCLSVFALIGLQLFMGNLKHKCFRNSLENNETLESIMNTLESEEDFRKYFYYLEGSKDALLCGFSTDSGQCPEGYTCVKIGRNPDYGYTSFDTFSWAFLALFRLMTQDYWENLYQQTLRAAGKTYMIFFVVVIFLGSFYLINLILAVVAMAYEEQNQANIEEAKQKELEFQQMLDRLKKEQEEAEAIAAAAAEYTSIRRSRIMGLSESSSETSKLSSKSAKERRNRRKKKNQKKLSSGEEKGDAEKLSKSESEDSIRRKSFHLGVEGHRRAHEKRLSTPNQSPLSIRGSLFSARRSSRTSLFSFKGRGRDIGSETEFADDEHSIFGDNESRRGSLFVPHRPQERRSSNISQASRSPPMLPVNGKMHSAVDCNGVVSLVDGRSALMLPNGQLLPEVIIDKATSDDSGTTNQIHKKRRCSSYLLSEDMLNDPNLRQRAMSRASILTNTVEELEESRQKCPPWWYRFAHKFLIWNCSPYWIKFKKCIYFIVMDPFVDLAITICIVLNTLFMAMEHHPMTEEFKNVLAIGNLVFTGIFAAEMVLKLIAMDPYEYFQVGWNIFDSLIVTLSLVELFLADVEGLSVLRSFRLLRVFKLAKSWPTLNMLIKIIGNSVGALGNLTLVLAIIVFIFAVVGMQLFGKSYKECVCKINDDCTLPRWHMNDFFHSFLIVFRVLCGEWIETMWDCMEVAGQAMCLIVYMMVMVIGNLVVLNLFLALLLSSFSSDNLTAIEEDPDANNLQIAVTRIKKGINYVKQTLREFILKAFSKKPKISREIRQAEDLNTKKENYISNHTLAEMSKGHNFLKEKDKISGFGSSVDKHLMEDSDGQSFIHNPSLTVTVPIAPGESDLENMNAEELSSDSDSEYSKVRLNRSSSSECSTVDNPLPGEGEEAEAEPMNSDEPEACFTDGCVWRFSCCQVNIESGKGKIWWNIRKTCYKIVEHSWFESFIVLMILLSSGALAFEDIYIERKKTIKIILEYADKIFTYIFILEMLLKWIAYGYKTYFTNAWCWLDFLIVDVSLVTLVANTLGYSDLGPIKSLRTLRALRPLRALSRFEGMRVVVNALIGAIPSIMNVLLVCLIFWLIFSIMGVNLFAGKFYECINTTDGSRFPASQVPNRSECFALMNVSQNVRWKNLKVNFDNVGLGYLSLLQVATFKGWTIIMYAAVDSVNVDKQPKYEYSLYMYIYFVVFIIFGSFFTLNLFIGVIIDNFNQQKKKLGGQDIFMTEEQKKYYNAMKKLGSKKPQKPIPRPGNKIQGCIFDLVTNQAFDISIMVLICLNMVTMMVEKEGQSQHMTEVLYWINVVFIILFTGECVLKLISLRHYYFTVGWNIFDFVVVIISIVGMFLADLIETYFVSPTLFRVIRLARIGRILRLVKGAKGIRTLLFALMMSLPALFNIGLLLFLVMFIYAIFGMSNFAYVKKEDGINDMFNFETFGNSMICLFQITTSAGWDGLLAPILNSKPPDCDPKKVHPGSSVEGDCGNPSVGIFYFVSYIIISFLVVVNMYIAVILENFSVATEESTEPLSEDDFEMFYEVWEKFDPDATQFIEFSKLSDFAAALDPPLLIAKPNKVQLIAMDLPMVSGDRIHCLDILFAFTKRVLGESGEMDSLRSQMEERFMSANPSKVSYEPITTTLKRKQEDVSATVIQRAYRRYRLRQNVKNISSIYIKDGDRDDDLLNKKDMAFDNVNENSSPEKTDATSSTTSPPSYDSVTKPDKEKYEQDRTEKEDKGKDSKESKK

Broadly, the IC50 is the concentration that inhibits the measured activity by half. Higher therefore signals lower potency. `Cn1cc(-c2ccc(C(F)F)cc2)c2cc(F)c(C(=O)NS(=O)(=O)C3CC3)cc21` registered an IC50 in experiment [1] of 46 nM.

`CC(C)COc1ncc(-c2cn(C)c3cc(C(=O)NS(C)(=O)=O)ccc23)cc1Cl` registered an IC50 in experiment [2] of 90 nM. `Cn1cc(-c2ccc(C(F)(F)F)cc2)c2cc(F)c(C(=O)NS(C)(=O)=O)cc21` returned an IC50 in experiment [3] of 30000 nM.

These data come from ChEMBL document CHEMBL4251687, “Acyl Sulfonamides NaV1.7 Blockers Useful for the Treatment of Pain” (ACS Med Chem Lett, 2018).
